Source: US9150527B2, “Metalloenzyme inhibitor compounds” (Innocrin Pharmaceuticals, Inc., priority 2011, dated 2015)

Assays:
CYP2C19 = CYP2C19 (Homo sapiens (Human), UniProt P33261); experiment: biochemical
CYP17 = CYP17 (Rattus norvegicus (Rat), UniProt P11715); experiment: CYP17 metalloenzyme activity, rat testicular microsomes; type: biochemical; settings: pooled rat testicular microsomes
Method: CYP17 activity was assayed according to the following procedure.

CYP2C9 = CYP2C9 (Homo sapiens (Human), UniProt P11712); experiment: biochemical
CYP3A4 = CYP3A4 (Homo sapiens (Human), UniProt P08684); experiment: Inhibition of liver cytochrome P450 enzymes, pooled human liver microsomes
Chain of CYP3A4 (P08684 whole entry): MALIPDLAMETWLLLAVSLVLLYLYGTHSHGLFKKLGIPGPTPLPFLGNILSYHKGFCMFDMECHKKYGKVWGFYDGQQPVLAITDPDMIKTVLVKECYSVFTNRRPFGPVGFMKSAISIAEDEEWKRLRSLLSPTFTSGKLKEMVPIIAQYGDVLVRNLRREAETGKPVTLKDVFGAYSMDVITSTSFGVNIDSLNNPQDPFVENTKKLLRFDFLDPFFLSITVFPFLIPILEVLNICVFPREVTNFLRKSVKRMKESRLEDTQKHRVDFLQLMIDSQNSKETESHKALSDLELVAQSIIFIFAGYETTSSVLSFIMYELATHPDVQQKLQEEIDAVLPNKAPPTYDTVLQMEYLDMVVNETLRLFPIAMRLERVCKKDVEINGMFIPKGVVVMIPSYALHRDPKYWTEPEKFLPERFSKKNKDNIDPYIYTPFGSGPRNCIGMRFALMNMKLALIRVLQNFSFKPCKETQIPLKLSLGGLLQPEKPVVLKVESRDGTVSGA

Chain of CYP2C19 (P33261 whole entry): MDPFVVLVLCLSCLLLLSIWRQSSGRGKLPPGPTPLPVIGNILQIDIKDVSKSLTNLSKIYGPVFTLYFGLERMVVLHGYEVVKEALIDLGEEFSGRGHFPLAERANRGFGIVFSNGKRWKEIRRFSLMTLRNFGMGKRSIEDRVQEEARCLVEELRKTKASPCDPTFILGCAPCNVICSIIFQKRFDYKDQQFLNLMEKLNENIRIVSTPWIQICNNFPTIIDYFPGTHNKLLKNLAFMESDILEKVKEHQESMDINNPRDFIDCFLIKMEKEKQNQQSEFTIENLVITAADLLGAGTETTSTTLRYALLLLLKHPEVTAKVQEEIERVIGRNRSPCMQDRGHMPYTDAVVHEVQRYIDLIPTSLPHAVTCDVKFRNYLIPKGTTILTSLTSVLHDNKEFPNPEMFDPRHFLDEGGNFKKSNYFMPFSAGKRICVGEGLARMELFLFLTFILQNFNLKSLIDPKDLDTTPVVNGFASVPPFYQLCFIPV
Chain of CYP2C9 (P11712 whole entry): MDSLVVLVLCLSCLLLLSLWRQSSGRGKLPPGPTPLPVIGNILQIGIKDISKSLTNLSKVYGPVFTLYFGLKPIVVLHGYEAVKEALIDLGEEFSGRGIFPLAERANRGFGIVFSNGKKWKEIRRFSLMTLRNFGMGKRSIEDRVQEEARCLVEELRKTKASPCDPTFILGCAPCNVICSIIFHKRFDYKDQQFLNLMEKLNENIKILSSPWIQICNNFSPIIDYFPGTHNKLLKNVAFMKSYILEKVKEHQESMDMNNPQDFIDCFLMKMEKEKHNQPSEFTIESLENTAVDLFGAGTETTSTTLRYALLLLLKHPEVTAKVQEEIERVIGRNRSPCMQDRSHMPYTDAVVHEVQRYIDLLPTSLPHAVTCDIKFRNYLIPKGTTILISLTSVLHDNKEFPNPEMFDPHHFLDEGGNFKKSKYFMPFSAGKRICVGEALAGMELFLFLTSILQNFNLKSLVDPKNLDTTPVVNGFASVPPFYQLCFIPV
Chain of CYP17 (P11715 whole entry): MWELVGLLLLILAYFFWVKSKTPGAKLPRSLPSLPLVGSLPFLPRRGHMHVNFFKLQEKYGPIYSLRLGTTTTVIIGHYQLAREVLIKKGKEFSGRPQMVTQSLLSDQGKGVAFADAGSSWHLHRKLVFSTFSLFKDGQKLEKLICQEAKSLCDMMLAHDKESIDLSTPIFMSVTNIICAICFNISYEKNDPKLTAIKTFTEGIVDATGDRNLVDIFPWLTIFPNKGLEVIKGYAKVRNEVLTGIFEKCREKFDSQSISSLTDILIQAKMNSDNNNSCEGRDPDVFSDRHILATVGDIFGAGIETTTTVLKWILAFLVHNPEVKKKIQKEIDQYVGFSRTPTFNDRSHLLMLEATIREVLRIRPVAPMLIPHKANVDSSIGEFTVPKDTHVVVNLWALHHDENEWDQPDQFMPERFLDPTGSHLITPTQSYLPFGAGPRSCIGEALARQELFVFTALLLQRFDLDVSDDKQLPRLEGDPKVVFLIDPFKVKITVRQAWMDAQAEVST

Compound: COc1cc2ccc(C(O)(c3cncs3)C(C)C)cc2cc1OC (stereo not shown) [Example 2, 1-(6,7-dimethoxynaphthalen-2-yl)-2-methyl-1-(thiazol-5-yl)propan-1-ol]
- IC50 (CYP2C19): 3000 nM
- IC50 (CYP17): 290 nM
- IC50 (CYP2C9): 33000 nM
- IC50 (CYP3A4): 770 nM
